The values that follow come from ChEMBL document CHEMBL4130413, “1-Aryl-1H- and 2-aryl-2H-1,2,3-triazole derivatives blockade P2X7 receptor in vitro and inflammatory response in vivo” (Eur J Med Chem, 2017).

The target of series [1] is T1, UDP-glucuronosyltransferase 1A3 (Homo sapiens, UniProt P35503).
T1 sequence (P35503 whole entry): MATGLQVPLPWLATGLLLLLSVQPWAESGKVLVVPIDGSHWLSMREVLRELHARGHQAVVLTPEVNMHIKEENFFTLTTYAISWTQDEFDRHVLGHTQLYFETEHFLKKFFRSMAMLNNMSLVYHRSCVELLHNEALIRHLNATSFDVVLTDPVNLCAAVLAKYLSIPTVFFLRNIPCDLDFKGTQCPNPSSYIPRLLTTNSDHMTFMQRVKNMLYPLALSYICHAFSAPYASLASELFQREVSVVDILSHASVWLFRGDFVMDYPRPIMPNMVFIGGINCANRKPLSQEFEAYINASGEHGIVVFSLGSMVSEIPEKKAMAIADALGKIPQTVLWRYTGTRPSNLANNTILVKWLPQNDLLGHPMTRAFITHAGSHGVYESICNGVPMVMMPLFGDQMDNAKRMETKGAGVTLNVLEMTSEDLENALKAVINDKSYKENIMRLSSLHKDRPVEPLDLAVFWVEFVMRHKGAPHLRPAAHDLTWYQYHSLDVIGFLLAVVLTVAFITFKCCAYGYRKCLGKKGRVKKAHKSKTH
Kind of series: Drug metabolism assessed as UGT1A3 (unknown origin)-mediated metabolite formation. Type of series: ADME.

The target of series [2] is T2, UDP-glucuronosyltransferase 1A9 (Homo sapiens, UniProt O60656).
T2 sequence (O60656 whole entry): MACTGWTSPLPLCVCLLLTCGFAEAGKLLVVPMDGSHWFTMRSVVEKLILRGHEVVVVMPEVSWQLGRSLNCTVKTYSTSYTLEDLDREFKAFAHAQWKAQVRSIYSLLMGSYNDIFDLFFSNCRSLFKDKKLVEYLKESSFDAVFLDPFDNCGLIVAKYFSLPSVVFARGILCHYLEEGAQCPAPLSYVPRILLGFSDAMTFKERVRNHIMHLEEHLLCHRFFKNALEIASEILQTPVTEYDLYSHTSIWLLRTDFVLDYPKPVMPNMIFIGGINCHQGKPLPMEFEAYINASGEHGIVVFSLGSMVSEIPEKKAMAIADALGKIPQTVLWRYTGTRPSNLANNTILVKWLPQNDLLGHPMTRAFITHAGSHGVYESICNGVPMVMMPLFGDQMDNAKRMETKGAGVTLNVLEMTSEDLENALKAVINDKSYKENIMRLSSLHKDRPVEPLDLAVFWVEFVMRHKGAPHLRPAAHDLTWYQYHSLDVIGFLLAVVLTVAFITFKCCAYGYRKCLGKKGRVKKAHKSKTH
Description: Drug metabolism assessed as UGT1A9 (unknown origin)-mediated metabolite formation. In kind it is ADME.

For series [3], the target named is T3, UDP-glucuronosyltransferase 1A4 (Homo sapiens, UniProt P22310).
T3 sequence (P22310 whole entry): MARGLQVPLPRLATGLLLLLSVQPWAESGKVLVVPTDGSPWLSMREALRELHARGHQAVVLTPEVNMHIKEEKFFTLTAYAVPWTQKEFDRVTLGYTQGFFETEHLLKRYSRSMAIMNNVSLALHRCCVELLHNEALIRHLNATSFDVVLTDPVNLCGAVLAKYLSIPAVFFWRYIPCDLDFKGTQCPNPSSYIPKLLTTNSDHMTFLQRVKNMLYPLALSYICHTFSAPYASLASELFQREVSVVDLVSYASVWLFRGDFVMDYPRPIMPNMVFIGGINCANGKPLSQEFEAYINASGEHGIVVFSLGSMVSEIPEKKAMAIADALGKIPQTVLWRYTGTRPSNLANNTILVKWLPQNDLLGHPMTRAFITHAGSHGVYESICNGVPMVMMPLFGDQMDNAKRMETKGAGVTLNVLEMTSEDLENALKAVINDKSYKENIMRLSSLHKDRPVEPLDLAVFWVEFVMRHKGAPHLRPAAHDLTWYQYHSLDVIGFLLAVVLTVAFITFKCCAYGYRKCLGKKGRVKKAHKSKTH
Kind of series: Drug metabolism assessed as UGT1A4 (unknown origin)-mediated metabolite formation. Type of series: ADME.

Series [4] concerns the target T4, UDP-glucuronosyltransferase 1A8 (Homo sapiens, UniProt Q9HAW9).
T4 sequence (Q9HAW9 whole entry): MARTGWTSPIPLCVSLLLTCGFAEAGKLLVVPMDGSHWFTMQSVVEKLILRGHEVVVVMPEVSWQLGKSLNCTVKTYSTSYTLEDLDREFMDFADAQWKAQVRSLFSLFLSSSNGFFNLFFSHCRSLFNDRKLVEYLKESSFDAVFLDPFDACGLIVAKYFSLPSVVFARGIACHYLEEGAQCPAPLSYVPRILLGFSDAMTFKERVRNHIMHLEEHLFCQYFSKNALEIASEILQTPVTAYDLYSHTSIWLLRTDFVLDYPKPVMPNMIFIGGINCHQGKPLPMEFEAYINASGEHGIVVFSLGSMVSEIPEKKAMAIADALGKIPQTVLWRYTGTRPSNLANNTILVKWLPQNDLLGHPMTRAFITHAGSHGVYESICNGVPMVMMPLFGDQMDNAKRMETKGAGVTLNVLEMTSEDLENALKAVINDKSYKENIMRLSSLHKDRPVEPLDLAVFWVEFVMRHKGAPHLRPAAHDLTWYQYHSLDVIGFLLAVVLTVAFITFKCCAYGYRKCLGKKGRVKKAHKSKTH
Kind of series: Drug metabolism assessed as UGT1A8 (unknown origin)-mediated metabolite formation. In kind it is ADME.

Series [5] concerns the target T5, UDP-glucuronosyltransferase 1A6 (Homo sapiens, UniProt P19224).
T5 sequence (P19224 whole entry): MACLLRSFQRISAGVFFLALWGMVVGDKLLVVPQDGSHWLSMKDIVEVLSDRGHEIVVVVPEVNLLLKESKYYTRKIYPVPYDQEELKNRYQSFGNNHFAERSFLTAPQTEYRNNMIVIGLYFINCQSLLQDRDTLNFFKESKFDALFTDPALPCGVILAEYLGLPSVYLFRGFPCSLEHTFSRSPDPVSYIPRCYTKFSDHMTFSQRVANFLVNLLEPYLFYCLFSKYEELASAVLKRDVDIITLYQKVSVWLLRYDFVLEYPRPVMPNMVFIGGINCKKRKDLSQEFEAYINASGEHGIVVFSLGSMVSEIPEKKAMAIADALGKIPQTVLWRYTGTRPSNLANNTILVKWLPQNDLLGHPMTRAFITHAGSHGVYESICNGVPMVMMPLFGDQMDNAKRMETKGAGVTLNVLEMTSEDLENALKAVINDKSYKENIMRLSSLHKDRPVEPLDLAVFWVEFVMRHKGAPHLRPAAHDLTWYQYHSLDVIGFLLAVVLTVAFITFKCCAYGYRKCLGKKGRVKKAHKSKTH
Description: Drug metabolism assessed as UGT1A6 (unknown origin)-mediated metabolite formation. In kind it is ADME.

The next series has as its target Cytochrome P450 2C19 (Homo sapiens, UniProt P33261).

Each structure is given as a SMILES string.

Chain of Cytochrome P450 2C19 (P33261 whole entry): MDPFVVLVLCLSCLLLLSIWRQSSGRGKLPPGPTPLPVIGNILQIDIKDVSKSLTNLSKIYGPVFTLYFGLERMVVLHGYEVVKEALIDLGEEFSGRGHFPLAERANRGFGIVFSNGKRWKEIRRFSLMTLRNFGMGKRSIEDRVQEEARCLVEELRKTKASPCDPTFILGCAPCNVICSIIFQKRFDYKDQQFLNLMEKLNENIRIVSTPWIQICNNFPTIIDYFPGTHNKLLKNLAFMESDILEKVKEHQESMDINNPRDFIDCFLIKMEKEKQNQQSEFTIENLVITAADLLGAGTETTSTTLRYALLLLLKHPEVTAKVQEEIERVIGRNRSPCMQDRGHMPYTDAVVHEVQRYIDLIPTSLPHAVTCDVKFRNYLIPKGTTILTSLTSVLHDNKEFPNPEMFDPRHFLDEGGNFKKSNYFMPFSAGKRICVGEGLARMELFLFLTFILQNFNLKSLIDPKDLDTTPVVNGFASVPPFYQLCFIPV
Description for Cytochrome P450 2C19: Drug metabolism assessed as CYP2C19 (unknown origin)-mediated metabolite formation

Turning to `COc1ccc2cc([C@H](C)C(=O)O)ccc2c1` [NAPROXEN], the Drug metabolism result is reported as “Metabolite_Detected” in series [1]; “Metabolite_Detected” in series [2]; “Metabolite_Notdetected” in series [3]; “Metabolite_Notdetected” in series [4]; “Metabolite_Detected” in series [5].

As for `CC(C)Cc1ccc(C(C)C(=O)O)cc1` (stereo not drawn) [IBUPROFEN], the Drug metabolism entry in series [1] is “Metabolite_Detected”; in series [2], “Metabolite_Detected”; in series [3] it was “Metabolite_Notdetected”; in series [4], “Metabolite_Notdetected”; in series [5], “Metabolite_Detected”; at Cytochrome P450 2C19, “Metabolite_Notdetected”.

Regarding `CCOCc1cn(-c2ccc(Cl)cc2)nn1`, the Drug metabolism entry is on record as “Metabolite_Notdetected” in series [1]; “Metabolite_Notdetected” in series [2]; “Metabolite_Detected” in series [3]; “Metabolite_Notdetected” in series [4]; “Metabolite_Notdetected” in series [5]; “Metabolite_Notdetected” on Cytochrome P450 2C19.

As to `O=C(O)Cc1ccccc1Nc1c(Cl)cccc1Cl` [DICLOFENAC], the Drug metabolism result in series [1] is “Metabolite_Detected”; in series [2] it was “Metabolite_Notdetected”; in series [3] it was “Metabolite_Notdetected”; in series [4] it was “Metabolite_Notdetected”; in series [5], “Metabolite_Notdetected”; on Cytochrome P450 2C19 it was “Metabolite_Notdetected”.
